# According to US9694073B2, “Small molecule inhibitors of polynucleotide kinase/phosphatase, poly(ADP-ribose) polymerase and uses thereof” (THE GOVERNORS OF THE UNIVERSITY OF ALBERTA, priority 2009, dated 2017):
# “Also recorded” adds a separate entry of the source.
# Assays:
# PP-1cγ = target: T1, PP-1cγ (Homo sapiens, UniProt P36873); assay: PP-1cγ pNPP phosphatase assay; format: biochemical; details: concentration as high as 83.3 μM
# T1 construct: made in house; host or cells: E. coli
# Description: (§1) PP-1cγ and calcineurin activity was analyzed, using a colorimetric p-nitrophenol phosphate (pNPP) assay as previously described (33). The reaction were carried out in a 96-well microplate with a final volume of 60 μl containing 40 μl of pNPP assay buffer (50 mM Tris, pH 7.4, 0.1 mM EDTA, 30 mM MgCl2, 0.5 mM MnCl2, 1 mg/ml BSA, 0.2% β-mercaptoethanol), 0.03 μg PP-1cγ (specific activity>30 units per mg) or a catalytically equivalent quantity of calcineurin and 10 μl of 0.5 mM DNA 3′-phosphatase inhibitor sample in DMSO or 10 μl of 50 μM A12B4C3 sample in DMSO, or control solvent. After a 10-minute incubation at 37° C., 10 μl of 30 mM pNPP was added to each well and incubated for an additional of 60 minutes and 45 minutes for PP-1cγ and calcineurin, respectively.
# [1] = tested on: DNA Polymerase β Dominant Negative (Pol β DN) A549 cells; assay: Synthetic lethality cell proliferation assay; format: cell-based, human; details: increasing concentrations, 72 hours
# [2] = tested on: A549δPNKP cells (PNKP-depleted); assay: Radiosensitization, clonogenic assay; format: cell-based, human; details: 1 μM
# Description: (§2) The effect of hPNKP inhibition by A12B4C3 on cellular survival following exposure to ionizing radiation was measured in A549, A549δPNKP and MDA-MB-231 and MDA-MB-231δPNKP cells by clonogenic assays. Cells were seeded on 60-mm tissue culture plates at various concentrations to give between about 100-1000 colonies per plate and returned to the incubator overnight to allow the cells to attach. For radiosensitization studies, the cells were incubated with or without 1 μM A12B4C3 for 2 hours before irradiation and then exposed to increasing doses of γ-radiation (^60Co Gammacell; Atomic Energy of Canada Limited, Ottawa). After irradiation, cells were incubated for a further 24 hours in the same media and then washed twice with phosphate-buffered saline (PBS) and incubated in fresh media without the inhibitor. Colonies were stained with crystal violet after 10 to 14 days and counted with an automated Colcount colony counter (Oxford Optronix, Oxford, UK).
# (§3) The capacity of A12B4C3 to act as a radiosensitizer was then examined. A549 cells were incubated with 1 μM A12B4C3 for 2 hours prior to irradiation and then maintained in the presence of the compound for a further 24 hours. […] This radiation response was nearly identical to that seen with cells depleted of PNKP by stable expression of shRNA (A549δPNKP).
# A549 cells = assay: Radiosensitization, clonogenic assay; format: cell-based, human; details: 1 μM, 2 hours before irradiation and 24 hours after
# Description: as §2, §3
# calcineurin = calcineurin (Rattus norvegicus, UniProt P63329); assay: Calcineurin pNPP phosphatase assay; format: biochemical; details: concentration as high as 83.3 μM
# Description: as §1, with “respectively. The absorbance at 405 nm was measured using a SOFTmax 2.35 microplate reader (Molecular Devices, Sunnyvale, Calif.).” for “respectively.”
# T1 sequence (P36873 whole entry): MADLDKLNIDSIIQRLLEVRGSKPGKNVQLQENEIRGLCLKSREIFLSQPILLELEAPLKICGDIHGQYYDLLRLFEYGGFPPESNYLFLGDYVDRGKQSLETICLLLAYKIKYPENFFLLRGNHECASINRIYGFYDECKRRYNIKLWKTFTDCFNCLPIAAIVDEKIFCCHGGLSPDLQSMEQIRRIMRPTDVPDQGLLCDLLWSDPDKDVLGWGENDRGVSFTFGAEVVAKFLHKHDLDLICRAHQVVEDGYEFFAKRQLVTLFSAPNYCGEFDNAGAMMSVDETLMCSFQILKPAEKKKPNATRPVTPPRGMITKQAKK
compound,measurement,setting,value
"CCCCCCCCCCC(O)C1C=CC2C(=O)N(c3ccccc3)C(=O)C2N1Nc1ccc([N+](=O)[O-])cc1 (centres unmarked) [Compound A12B4C3, 2-(1-hydroxyundecyl)-1-(4-nitrophenylamino)-6-phenyl-6,7a-dihydro-1H-pyrrolo[3,4-b]pyridine-5,7(2H,4aH)-dione]",inhibition of PP-1γ,PP-1cγ,Neither enzyme displayed inhibition; also recorded: no inhibition
same,cell survival of Pol β DN cells,[1],reduced survival; also recorded: inverse relationship
same,radiosensitization (γ-radiation survival curves),[2],failed to sensitize
same,radiosensitization (γ-radiation survival curves),A549 cells,almost doubled the radiosensitivity
same,inhibition of calcineurin,calcineurin,Neither enzyme displayed inhibition; also recorded: no inhibition
